In brackets after ≈: the same amount, converted by molar mass.
Experiments:
Assay type in all cases: functional
[1] = test system: HCT-116; assay: In vitro cytotoxicity against HCT116 cancer cell lines.; conditions: Homo sapiens, read-out: TD50 (the source's name)
[2] = test system: L1210; assay: In vitro cytotoxicity against L1210 cancer cell lines.; conditions: Mus musculus, read-out: TD50 (the source's name)
[3] = test system: KB; assay: In vitro cytotoxicity against KB cancer cell lines.; conditions: Homo sapiens, read-out: TD50 (the source's name)
[4] = test system: MCF7; assay: In vitro cytotoxicity against MCF-7 cancer cell lines.; conditions: Homo sapiens, read-out: TD50 (the source's name)
[5] = test system: L1210/Adr; assay: In vitro cytotoxicity against L1210/Adr cancer cell lines.; conditions: Mus musculus, read-out: TD50 (the source's name)
[6] = test system: CHO; assay: In vitro cytotoxicity against CHO cancer cell lines.; conditions: Cricetulus griseus, read-out: TD50 (the source's name)

Row | Compound | CC50 [1] | CC50 [2] | CC50 [3] | CC50 [4] | CC50 [5] | CC50 [6]
1 | CCOC(=O)c1cc(NC2=CC3=NCCc4cn(C)c(c43)C2=O)cn1COC | 0.4 µg/mL (≈ 1.05 µM) | 2 µg/mL (≈ 5.23 µM) | 0.5 µg/mL (≈ 1.31 µM) | 0.5 µg/mL (≈ 1.31 µM) | 1 µg/mL (≈ 2.61 µM) | 0.7 µg/mL (≈ 1.83 µM)
2 | COCn1cc(NC(=O)c2cc(NC(=O)c3cc(NC4=CC5=NCCc6cn(C)c(c65)C4=O)cn3COC)cn2COC)cc1C(=O)NCCCN(C)C | 2.1 µg/mL (≈ 2.83 µM) | 3.3 µg/mL (≈ 4.44 µM) | 0.4 µg/mL (≈ 0.538 µM) | 0.2 µg/mL (≈ 0.269 µM) | 2.8 µg/mL (≈ 3.77 µM) | 0.9 µg/mL (≈ 1.21 µM)
3 | CCOC(=O)c1cc(NC(=O)c2cc(NC(=O)c3cc(NC4=CC5=NCCc6cn(C)c(c65)C4=O)cn3COC)cn2COC)cn1COC | 5.2 µg/mL (≈ 7.57 µM) | 1.3 µg/mL (≈ 1.89 µM) | 1.4 µg/mL (≈ 2.04 µM) | 4.7 µg/mL (≈ 6.84 µM) | 2.5 µg/mL (≈ 3.64 µM) | 4.9 µg/mL (≈ 7.14 µM)
4 | COCn1cc(NC2=CC3=NCCc4cn(C)c(c43)C2=O)cc1C(=O)NCCCN(C)C | 5.8 µg/mL (≈ 13.2 µM) | 3.8 µg/mL (≈ 8.67 µM) | 0.5 µg/mL (≈ 1.14 µM) | 0.4 µg/mL (≈ 0.912 µM) | 2.5 µg/mL (≈ 5.7 µM) | 49.2 µg/mL (≈ 112 µM)
5 | COCn1cc(NC(=O)c2cc(NC3=CC4=NCCc5cn(C)c(c54)C3=O)cn2COC)cc1C(=O)NCCCN(C)C | 6.1 µg/mL (≈ 10.3 µM) | 8.2 µg/mL (≈ 13.9 µM) | 1.9 µg/mL (≈ 3.22 µM) | 0.5 µg/mL (≈ 0.846 µM) | 3.8 µg/mL (≈ 6.43 µM) | 17.5 µg/mL (≈ 29.6 µM)
6 | CCOC(=O)c1cc(NC(=O)c2cc(NC3=CC4=NCCc5cn(C)c(c54)C3=O)cn2COC)cn1COC | 1.7 µg/mL (≈ 3.18 µM) | 4.9 µg/mL (≈ 9.17 µM) | 2.3 µg/mL (≈ 4.3 µM) | 3.3 µg/mL (≈ 6.17 µM) | 3.3 µg/mL (≈ 6.17 µM) | 4.2 µg/mL (≈ 7.86 µM)
7 | COc1cccc2c1C(=O)c1c(O)c3c(c(O)c1C2=O)C[C@@](O)(C(=O)CO)C[C@@H]3O[C@H]1C[C@H](N)[C@H](O)[C@H](C)O1 [DOXORUBICIN] | 0.17 µg/mL (≈ 0.313 µM) | 0.02 µg/mL (≈ 0.0368 µM) | 0.02 µg/mL (≈ 0.0368 µM) | 0.2 µg/mL (≈ 0.368 µM) | 0.3 µg/mL (≈ 0.552 µM) | 0.05 µg/mL (≈ 0.092 µM)

Reference: ChEMBL document CHEMBL1129715, “Synthesis and biological evaluation of hybrid molecules containing the pyrroloquinoline nucleus and DNA-minor groove binders” (1996)
